Assay results published in PMC9133036 (Nature Communications, 2022).
Changes are numbered by the printed parent chain. Like-named read-outs stand apart in the source and are kept apart here.

Columns and labels:
Format in all cases: cell-based
human OX1R wild-type = molecular target: T1, human OX1R wild-type (Homo sapiens, UniProt O43613); experiment: IP accumulation assay, OX1R WT
T1 construct: FLAG; expressed in transfected cells; host or cells: HEK293
T1 sequence (O43613 1-425): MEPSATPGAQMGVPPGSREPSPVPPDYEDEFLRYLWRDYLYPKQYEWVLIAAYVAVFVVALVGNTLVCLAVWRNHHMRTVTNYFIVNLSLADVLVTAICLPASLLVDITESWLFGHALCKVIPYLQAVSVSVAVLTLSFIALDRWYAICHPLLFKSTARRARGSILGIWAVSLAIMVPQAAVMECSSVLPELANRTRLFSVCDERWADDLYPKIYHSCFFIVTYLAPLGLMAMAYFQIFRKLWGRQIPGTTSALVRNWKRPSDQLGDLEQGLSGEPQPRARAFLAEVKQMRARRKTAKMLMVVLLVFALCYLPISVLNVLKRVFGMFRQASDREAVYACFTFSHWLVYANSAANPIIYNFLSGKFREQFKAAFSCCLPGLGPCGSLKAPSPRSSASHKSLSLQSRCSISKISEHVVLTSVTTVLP
Description: The IP assay was adapted from a prior precedent. HEK293 cells were maintained in DMEM-high glucose (Millipore Sigma) supplemented with 5% fetal bovine serum (Corning) and penicillin-streptomycin (Millipore Sigma). Receptor constructs used were the full-length wild-type (or mutant) human OX1R and OX2R sequences cloned into pCDNA3. To enhance the Emax in the IP assay, a plasmid encoding full-length human Gαq subunit[66] was co-transfected into HEK293 cells with plasmids encoding orexin receptor constructs using Lipofectamine 3000 (Thermo Fisher). 24 h after transfection, the cells were plated on poly-D-lysine coated (Millipore Sigma) tissue culture-treated 96 well white plates with clear bottoms (Perkin Elmer) at 30,000 cells per well in Inositol-free DMEM (MP Biomedicals) supplemented with 5% fetal bovine serum, 4 mM L-glutamine (Millipore Sigma), penicillin-streptomycin, and about 5 uCi (5 ul) per ml myo-[2-3H] inositol (Perkin Elmer). The following day, the media was replaced with agonists that were diluted in HBSS (Millipore Sigma) containing 10 mM lithium chloride (Millipore Sigma) and incubated at 37 °C for 45 min. Then agonists were removed and cells were lysed on ice for 30 min with 10 mM formic acid (Millipore Sigma). 1.25 mg of poly-lysine coated YSI SPA beads (Perkin Elmer) was added to each well. The plates were mixed on an orbital shaker for 30 min. The plates were read on a MicroBeta scintillation counter (Perkin Elmer) the following day. IP accumulation assays on different constructs were performed in n ≥ 3 independent experiments (each done in duplicate), where n is shown in Supplementary Table 2.

OX2R W120A = molecular target: T2, OX2R W120A (Homo sapiens, UniProt O43614, W120A); experiment: β-arrestin PathHunter assay, OX2R W120A; conditions: β-arrestin recruitment
T2 construct: expressed in transfected cells; host or cells: CHO-K1 stably expressing EA β-arrestin2
Experimental: (§1) β-Arrestin recruitment activity was measured by using the PathHunter system (DiscoveRX) according to the manufacturer’s instruction. Receptor constructs used were the full-length wild-type (or mutant) human OX2R sequences cloned into pCMV-ProLink (DiscoveRX). CHO-K1 cells stably expressing EA β-arrestin2 (DiscoveRX) were plated on 384 well white plates (Thermo Fisher) at 4000 cells/well in HamF12 (Wako Pure Chemical Industries) supplemented with 10% fetal bovine serum (Corning) and penicillin-streptomycin (Wako Pure Chemical Industries) and incubated overnight at 37 °C under 5% CO2. Cells were transfected with plasmids encoding wild type or each mutant ProLink-tagged human OX2R using FuGENE HD (Promega). […] Detection reagent was added and incubated for 1 h at room temperature. Luminescent signal was detected using an EnVision plate reader (PerkinElmer). β-arrestin assays on different constructs were performed in two or three independent experiments (each done in quadruplicate). Dose response curves (shown in Supplementary Fig. 8) were fitted to the three-parameter model ‘log(agonist) vs response’ in GraphPad Prism to determine pEC50 values.

OX2R F228A = molecular target: T3, OX2R F228A (Homo sapiens, UniProt O43614, F228A); experiment: β-arrestin PathHunter assay, OX2R F228A; conditions: β-arrestin recruitment
T3 construct: expressed in transfected cells; host or cells: CHO-K1 stably expressing EA β-arrestin2
Experimental: as §1

OX2R Y317A = molecular target: T4, OX2R Y317A (Homo sapiens, UniProt O43614, Y317A); experiment: β-arrestin PathHunter assay, OX2R Y317A; conditions: for EC50: β-arrestin recruitment
T4 construct: expressed in transfected cells; host or cells: CHO-K1 stably expressing EA β-arrestin2
T4 sequence (O43614 1-444 Y317A): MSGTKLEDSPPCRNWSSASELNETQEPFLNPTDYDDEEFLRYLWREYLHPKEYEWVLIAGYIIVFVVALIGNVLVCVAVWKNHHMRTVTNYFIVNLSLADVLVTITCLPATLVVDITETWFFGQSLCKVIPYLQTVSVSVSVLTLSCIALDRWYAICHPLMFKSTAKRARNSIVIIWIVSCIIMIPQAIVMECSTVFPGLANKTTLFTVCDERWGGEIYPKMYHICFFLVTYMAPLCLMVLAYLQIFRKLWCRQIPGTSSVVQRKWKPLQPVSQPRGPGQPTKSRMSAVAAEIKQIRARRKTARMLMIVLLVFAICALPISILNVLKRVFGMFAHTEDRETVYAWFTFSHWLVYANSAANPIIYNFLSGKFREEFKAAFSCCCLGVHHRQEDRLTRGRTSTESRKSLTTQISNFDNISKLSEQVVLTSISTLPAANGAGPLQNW
Experimental: as §1

OX2R Q134A = molecular target: T5, OX2R Q134A (Homo sapiens, UniProt O43614, Q134A); experiment: β-arrestin PathHunter assay, OX2R Q134A; design: expressed in transfected cells; host or cells: CHO-K1 stably expressing EA β-arrestin2; conditions: for EC50: β-arrestin recruitment
T5 sequence (O43614 1-444 Q134A): T4 sequence (O43614 1-444 Y317A) with Q134A, A317Y
Experimental: as §1

[1] = pEC50 ± SEM, read-out: pEC50 (converted)

T2 sequence (O43614 whole entry W120A): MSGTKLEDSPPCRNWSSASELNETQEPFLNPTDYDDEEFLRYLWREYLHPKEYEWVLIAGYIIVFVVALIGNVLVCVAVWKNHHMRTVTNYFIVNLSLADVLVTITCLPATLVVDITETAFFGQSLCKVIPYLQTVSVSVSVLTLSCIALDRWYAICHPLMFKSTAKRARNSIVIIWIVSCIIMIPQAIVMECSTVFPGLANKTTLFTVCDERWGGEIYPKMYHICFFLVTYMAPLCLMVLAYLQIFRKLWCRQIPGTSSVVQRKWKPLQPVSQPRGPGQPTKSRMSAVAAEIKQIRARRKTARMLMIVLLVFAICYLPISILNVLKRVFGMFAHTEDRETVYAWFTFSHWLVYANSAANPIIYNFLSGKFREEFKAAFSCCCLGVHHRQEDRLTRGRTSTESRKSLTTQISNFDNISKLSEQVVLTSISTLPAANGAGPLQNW
T3 sequence (O43614 whole entry F228A): as the sequence (O43614 whole entry W120A) above, with A120W, F228A counted along it

- activation at 100 µM (human OX1R wild-type; 0.75 h, TAK-925 conc (log, M) -4.00, normalized to S103T/A127T Emax): 59%
- activation at 33.1 µM (human OX1R wild-type; 0.75 h, TAK-925 conc (log, M) -4.48): 40.3%
- activation at 11.2 µM (human OX1R wild-type; 0.75 h, TAK-925 conc (log, M) -4.95): 23.1%
- activation at 3.72 µM (human OX1R wild-type; 0.75 h, TAK-925 conc (log, M) -5.43): 13.6%
- activation at 1.23 µM (human OX1R wild-type; 0.75 h, TAK-925 conc (log, M) -5.91): 8.76%
- activation at 0.0457 µM (human OX1R wild-type; 0.75 h, TAK-925 conc (log, M) -7.34): 7.24%
- pEC50 (human OX1R wild-type; IP accumulation): not saturating
- EC50 (human OX1R wild-type; IP accumulation, non-saturating): > 100 µM
- EC50 (OX2R W120A; read-out: EC50): > 30 µM
- EC50 (OX2R W120A; read-out: pEC50 (converted)): > 30.2 µM
- EC50 (OX2R F228A): 0.6 µM
- β-arrestin recruitment, change on mutation of Tyr317 (OX2R Y317A): large reductions
- EC50 (OX2R Y317A; [1]): > 30.2 µM
- EC50 (OX2R Y317A; read-out: EC50): > 30 µM
- β-arrestin recruitment, change on mutation of Gln134 (OX2R Q134A): large reductions
- EC50 (OX2R Q134A; [1]): > 30.2 µM
- EC50 (OX2R Q134A; read-out: EC50): > 30 µM
Compound: COC(=O)N1CCC[C@H](NS(C)(=O)=O)[C@@H]1CO[C@H]1CC[C@@H](c2ccccc2)CC1 [TAK-925, methyl (2R,3S)−3-[(methylsulfonyl)amino]−2-{[(cis−4-phenylcyclohexyl)oxy]methyl}piperidine-1-carboxylate]
